Results reported in ChEMBL document CHEMBL1201862, “PubChem BioAssay data set” (2004).
The source made the active and inactive calls.

Tests used:
[1] = target: T1, Long-chain-fatty-acid--AMP ligase FadD28 (Mycobacterium tuberculosis, UniProt P9WQ59); experiment: Fluorescence polarization aasay to screen for inhibitors that compete for the binding of FadD28 to a bisubstrate Measured in Biochemical System Using Plate Reader - 2147-01_Inhibitor_Dose_CherryPick_Activity.; format: functional, Mycobacterium tuberculosis H37Rv
T1 sequence (P9WQ59 whole entry): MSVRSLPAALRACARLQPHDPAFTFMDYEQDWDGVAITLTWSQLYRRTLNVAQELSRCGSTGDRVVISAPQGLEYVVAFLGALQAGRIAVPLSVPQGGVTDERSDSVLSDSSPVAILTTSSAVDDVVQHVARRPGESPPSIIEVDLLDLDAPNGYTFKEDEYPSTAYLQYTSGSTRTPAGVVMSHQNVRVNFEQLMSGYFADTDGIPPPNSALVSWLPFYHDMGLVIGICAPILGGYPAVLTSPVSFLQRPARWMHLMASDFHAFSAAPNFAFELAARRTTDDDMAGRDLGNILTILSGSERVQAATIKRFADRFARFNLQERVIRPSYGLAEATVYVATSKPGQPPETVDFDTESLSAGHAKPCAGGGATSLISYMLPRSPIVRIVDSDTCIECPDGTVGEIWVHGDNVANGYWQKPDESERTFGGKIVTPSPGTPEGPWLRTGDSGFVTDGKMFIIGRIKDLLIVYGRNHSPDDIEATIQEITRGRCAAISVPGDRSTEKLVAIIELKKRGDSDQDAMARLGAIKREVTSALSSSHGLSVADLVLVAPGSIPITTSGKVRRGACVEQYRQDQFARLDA

[2] = target: T2, DNA repair and recombination protein RAD54-like (Homo sapiens, UniProt Q92698); experiment: RAD54 Holliday junction migration blockers – biochemical, fluorescence, cherry-picked samples, dose series, confirmation (AID 651657); format: functional
T2 sequence (Q92698 whole entry): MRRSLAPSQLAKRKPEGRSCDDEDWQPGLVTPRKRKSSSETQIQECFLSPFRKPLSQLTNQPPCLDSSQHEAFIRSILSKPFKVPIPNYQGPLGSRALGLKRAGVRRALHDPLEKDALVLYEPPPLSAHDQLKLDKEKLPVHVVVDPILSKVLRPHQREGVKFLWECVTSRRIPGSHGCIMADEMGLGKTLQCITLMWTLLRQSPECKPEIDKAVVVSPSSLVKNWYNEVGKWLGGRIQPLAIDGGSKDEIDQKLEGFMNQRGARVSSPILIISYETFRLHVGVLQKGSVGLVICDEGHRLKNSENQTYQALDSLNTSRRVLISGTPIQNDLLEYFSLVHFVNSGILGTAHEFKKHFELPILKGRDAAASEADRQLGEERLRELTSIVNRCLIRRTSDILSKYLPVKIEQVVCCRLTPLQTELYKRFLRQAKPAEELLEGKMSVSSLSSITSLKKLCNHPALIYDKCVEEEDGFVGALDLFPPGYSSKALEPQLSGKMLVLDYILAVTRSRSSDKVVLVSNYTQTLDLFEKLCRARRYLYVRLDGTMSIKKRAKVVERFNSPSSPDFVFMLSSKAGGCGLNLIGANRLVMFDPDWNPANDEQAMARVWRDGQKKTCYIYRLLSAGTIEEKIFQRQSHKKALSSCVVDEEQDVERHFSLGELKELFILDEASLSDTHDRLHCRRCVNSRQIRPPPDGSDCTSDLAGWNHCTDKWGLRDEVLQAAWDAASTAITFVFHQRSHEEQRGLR

[3] = target: T3, DNA repair protein RAD52 homolog (Homo sapiens, UniProt P43351); format: functional, biochemical
T3 sequence (P43351 whole entry): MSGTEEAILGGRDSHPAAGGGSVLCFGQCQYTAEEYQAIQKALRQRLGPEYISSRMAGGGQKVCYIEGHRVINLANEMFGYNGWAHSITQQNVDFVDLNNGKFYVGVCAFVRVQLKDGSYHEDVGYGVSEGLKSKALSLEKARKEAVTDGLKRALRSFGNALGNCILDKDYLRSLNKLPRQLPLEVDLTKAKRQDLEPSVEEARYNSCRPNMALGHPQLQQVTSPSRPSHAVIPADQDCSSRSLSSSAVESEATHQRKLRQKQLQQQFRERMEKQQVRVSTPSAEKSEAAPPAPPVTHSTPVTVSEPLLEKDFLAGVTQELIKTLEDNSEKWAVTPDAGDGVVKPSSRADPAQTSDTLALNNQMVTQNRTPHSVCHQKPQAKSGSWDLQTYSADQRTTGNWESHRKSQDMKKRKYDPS

[4] = general mammalian cell viability loss – inhibitor set, cherry-pick, set 2, cytotoxicity control for miR-122 modulator project, dose response (AID 720697); format: functional, cell-based
[5] = intracellular Trypanosoma cruzi inhibitors in host cells – cell-based, plate reader, cherry-pick samples, set 3, dose response (AID 651818); format: functional;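 note: compounds incubated with infected cells for about four days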
[6] = general mammalian cell viability loss – activator set, cherry-pick, cytotoxicity control for miR-122 modulator project, dose response (AID 720690); format: functional, cell-based;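 note: HEK293T human cells scored for general mammalian cytotoxicity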
[7] = target: Paired box protein Pax-8 (Homo sapiens, UniProt Q06710); experiment: PAX8 transcriptional activity inhibition in RMG-I – RMG-I cells, luciferase, cherry-pick, dose response (AID 687027); format: functional, cell-based;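 note: luciferase reporter driven by Pax8 target thyroperoxidase promoter measured by SteadyGlo luminescence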
Sequence of Paired box protein Pax-8 (Q06710 whole entry): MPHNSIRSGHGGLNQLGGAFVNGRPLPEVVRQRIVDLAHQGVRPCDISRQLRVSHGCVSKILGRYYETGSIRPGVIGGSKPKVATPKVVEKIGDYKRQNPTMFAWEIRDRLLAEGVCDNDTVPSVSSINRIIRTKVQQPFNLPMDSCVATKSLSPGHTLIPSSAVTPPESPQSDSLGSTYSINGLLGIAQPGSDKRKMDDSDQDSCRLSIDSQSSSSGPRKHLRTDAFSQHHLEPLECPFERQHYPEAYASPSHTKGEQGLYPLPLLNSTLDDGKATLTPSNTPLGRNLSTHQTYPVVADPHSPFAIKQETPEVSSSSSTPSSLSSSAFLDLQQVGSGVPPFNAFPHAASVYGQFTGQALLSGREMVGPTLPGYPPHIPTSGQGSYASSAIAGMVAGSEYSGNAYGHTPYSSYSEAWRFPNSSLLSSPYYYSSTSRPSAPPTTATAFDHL

[8] = OVCAR8 cell viability loss – plate reader, dry powder samples, PAX8 project, dose response (AID 743197); format: functional, cell-based; settings: OVCAR-8
[9] = OVCAR-3 cell viability loss – plate reader, dry powder samples, PAX8 inhibitor project, dose response (AID 743044); format: functional, cell-based
[10] = toxicity to human hepatoma HepG2 cells – cell-based, cherry-picked samples, cytotoxicity control, dose response (AID 1159577); format: functional
[11] = P. falciparum Dd2 growth inhibitors, dose response, SYBR Green, cherry-picked samples (AID 1159567); format: functional, cell-based
[12] = Dd2 malaria parasite growth inhibition potency – SYBR Green, dry powder samples, dose response (AID 1159566); format: functional, cell-based;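 note: potency for growth inhibition with lower SYBR green DNA signal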
[13] = growth inhibition of yeast DHODH-expressing 3D7 parasites – SYBR Green, dry powder samples, dose response (AID 1159570); format: functional, cell-based;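 note: parasite growth measured after 72 hours of compound exposure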
[14] = growth inhibition of PfATP4-mutant resistant parasites – NITD609-resistant line, SYBR Green, dry powder, dose response (AID 1159571); format: functional, cell-based;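 note: parasites synchronized at ring stage by sorbitol before testing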
[15] = Luminescence Cell-Based Dose Response HTS to Identify Inhibitors of 5'UTR Stem-Loop Driven Prion Protein mRNA Translation in H4 Neuroglioblastoma Cells. [Related pubchem assays: 1827 (Project Summary), 1813 (Primary HTS)]; format: functional
[16] = luciferase reporter signal suppression in cells – H4 neuroglioma cells, luminescence, dose response (AID 1990); format: functional, cell-based

**Q.** For `NS(=O)(=O)c1ccc(CNC(=O)C(Cc2ccccc2)NS(=O)(=O)c2ccccc2F)cc1` (stereo not drawn), which AC50 [1] is on record?
**A.** Its AC50 is 39.3 µM (active).

**Q.** For `COc1ccc(Cl)c2sc(N(CCN(C)C)C(=O)C3=COCCO3)nc12`, which AC50 [2] is on record?
**A.** Its AC50 is 38 µM (active).

**Q.** With `COc1ccc(-c2cc(NC=O)c3ncc(-c4cccc(C(=O)NCCN(C)C)c4)n3c2)cc1` as the molecule, how does the AC50 [3] read?
**A.** Its AC50 is 2.81 µM (active).

**Q.** And the AC50 [2]?
**A.** The AC50 was 9.93 µM (active).

**Q.** For `C[C@@H]1CN([C@@H](C)CO)C(=O)c2cc(NC(=O)Nc3ccc(C(F)(F)F)cc3)ccc2O[C@@H]1CN(C)CC1CCCCC1`, which AC50 [4] is on record?
**A.** Its AC50 is 4.35 µM (active).

**Q.** And the AC50 [5]?
**A.** The AC50 was 5.59 µM (active).

**Q.** What about the AC50 [6] of the same molecule?
**A.** The AC50 was 19.1 µM (active).

**Q.** Which AC50 [7] does the source give for `Cc1noc(C)c1S(=O)(=O)Nc1ccc2c(c1)C(=O)N([C@H](C)CO)C[C@@H](C)[C@H](CN(C)C(=O)Nc1ccc(C(F)(F)F)cc1)OCCCC[C@@H](C)O2` here?
**A.** Its AC50 is 7.41 µM (active).

**Q.** What about the AC50 [8] of the same molecule?
**A.** Its AC50 is 38.2 µM (active).

**Q.** What about the AC50 [9] of the same molecule?
**A.** The AC50 was 26.7 µM (active).

**Q.** For `C[C@@H]1CN([C@@H](C)CO)C(=O)Cc2cc(NC(=O)Nc3ccc(C(F)(F)F)cc3)ccc2O[C@H]1CN(C)CC1CCCCC1`, which AC50 [10] is on record?
**A.** Its AC50 is 10.4 µM (active).

**Q.** What about the AC50 [11] of the same molecule?
**A.** Its AC50 is 1.35 µM (active).

**Q.** For `C[C@H](CO)N1C[C@H](C)[C@@H](CN(C)Cc2ccc3c(c2)OCO3)Oc2ccc(NC(=O)Nc3ccc(C(F)(F)F)cc3)cc2CC1=O`, which AC50 [12] is on record?
**A.** The AC50 was 0.94 µM (active).

**Q.** And the AC50 [13]?
**A.** Its AC50 is 0.954 µM (active).

**Q.** What about the AC50 [10] of the same molecule?
**A.** The AC50 was > 39 µM (inactive).

**Q.** What about the AC50 [14] of the same molecule?
**A.** The AC50 was 0.852 µM (active).

**Q.** What about the AC50 [11] of the same molecule?
**A.** Its AC50 is 1.14 µM (active).

**Q.** With `COc1ccc2c3c([nH]c2c1)[C@H](CO)N(Cc1ccncc1)CC31CCN(Cc2ccc(-c3ccccn3)cc2)CC1` as the molecule, how does the AC50 [10] read?
**A.** Its AC50 is 17.6 µM (active).

**Q.** What about the AC50 [11] of the same molecule?
**A.** The AC50 was 0.973 µM (active).

**Q.** What does the source list for `CC1(C)Oc2cc3oc(-c4cc(O)cc(O)c4)cc3cc2CC1O` (stereo not drawn) [(+/-)-MORACIN P]?
**A.** AC50 [1]: 65.8 µM (active); EC50 [15]: 11.1 µM (active); EC50 [16]: 4.04 µM (inconclusive)

**Q.** For `CCCCCC1C(=O)N2C=C(c3ccccc3)c3ccccc3N2C1=O` (stereo not drawn) [CINTAZONE], which AC50 [1] is on record?
**A.** The AC50 was 67.3 µM (active).
